# Source: paper PMC5788402, “Impact of Target Warhead and Linkage Vector on Inducing Protein Degradation: Comparison of Bromodomain and Extra-Terminal (BET) Degraders Derived from Triazolodiazepine (JQ1) and Tetrahydroquinoline (I-BET726) BET Inhibitor Scaffolds” (Journal of Medicinal Chemistry, 2017)
# Tests used:
# Brd4^BD2 = Brd4^BD2 (Homo sapiens, UniProt O60885); test: ITC binary titration, Brd4^BD2 into PROTAC; assay type: binding; conditions: Brd4^BD2 in syringe, PROTAC in cell
# [1] = target: VHL-EloC-EloB protein (VCB) (Homo sapiens, UniProt P40337); test: ITC binary titration, VCB into PROTAC; assay type: binding; conditions: VCB in syringe, PROTAC in cell
# [2] = target: VCB / Brd4^BD2 ternary complex (Homo sapiens, UniProt O60885+P40337); test: ITC ternary titration, VCB into Brd4^BD2–PROTAC complex; assay type: binding; conditions: for α: cooperativity, ratio between binary and ternary Kd; for α / ΔpKd ± uncertainty: Brd4^BD2; for cooperativity (α) Brd4–BD2: ternary complex formation with VCB and Brd4^BD2, as tabulated in Table 2; for ΔpKd ± uncertainty: ternary vs binary; for stoichiometry N / ΔG / ΔH / –TΔS: ternary, VCB in syringe, Brd4^BD2–PROTAC in cell
# MV4;11 cells = test: Cell viability assay (CellTiter-Glo), MV4;11; assay type: cell-based; conditions: Homo sapiens, antiproliferative, 48 h treatment, error = quality of curve fitting, read-out: pEC50 MV4;11 (converted)
# Brd4 [3] = target: T1, Brd4 (Homo sapiens, UniProt O60885); test: Brd4 depletion in MV4;11 (immunoblot); assay type: cell-based; conditions: 50 nM, 4 h
# T1 construct: endogenous in cells; host or cells: MV4;11; HL60
# cMyc = cMyc depletion in MV4;11 (immunoblot); assay type: cell-based; conditions: 50 nM, 4 h
# Brd4 [4] = target: T1, Brd4; test: Brd4 depletion in HL60 (immunoblot); assay type: cell-based; conditions: 50 nM, 4 h, HL60
Compound,stoichiometry N (Brd4^BD2),ΔG (Brd4^BD2),ΔH (Brd4^BD2),–TΔS (Brd4^BD2),stoichiometry N [1],ΔG [1],ΔH [1],–TΔS [1],α [2],cooperativity (α) Brd4–BD2 [2],ΔpKd ± uncertainty [2],stoichiometry N [2],ΔG [2],ΔH [2],–TΔS [2],EC50 (MV4;11 cells) [nM],Brd4 depletion (%) MV4;11 (Brd4 [3]),cMyc depletion (%) MV4;11 (cMyc),Brd4 depletion (%) HL60 (Brd4 [4])
Cc1ncsc1-c1ccc(CNC(=O)[C@@H]2C[C@@H](O)CN2C(=O)[C@@H](NC(=O)COCCOCCOCCOCCNC(=O)C[C@@H]2N=C(c3ccc(Cl)cc3)c3c(sc(C)c3C)-n3c(C)nnc32)C(C)(C)C)cc1 [compound 7],0.79 ± 0.03,–10.3 ± 0.04 kcal·mol^–1,–10.6 ± 0.5 kcal·mol^–1,0.31 ± 0.53 kcal·mol^–1,0.76 ± 0.03,–9.75 ± 0.13 kcal·mol^–1,–8.79 ± 0.42 kcal·mol^–1,–0.96 ± 0.29 kcal·mol^–1,4.7,4.7,0.66 ± 0.10,0.76 ± 0.07,–10.7 ± 0.05 kcal·mol^–1,–10.6 ± 1.3 kcal·mol^–1,–0.07 ± 1.3 kcal·mol^–1,123,–,–,–
"CC(=O)N1c2ccc(-c3ccc(C(=O)NCCOCCOCC(=O)N[C@H](C(=O)N4C[C@H](O)C[C@H]4C(=O)NCc4ccc(-c5scnc5C)cc4)C(C)(C)C)cc3)cc2[C@H](Nc2ccc(Cl)cc2)C[C@@H]1C [compound 8, (2S,4R)-1-((S)-1-(4-((2S,4R)-1-Acetyl-4-((4-chlorophenyl)amino)-2-methyl-1,2,3,4-tetrahydroquinolin-6-yl)phenyl)-12-(tert-butyl)-1,10-dioxo-5,8-dioxa-2,11-diazatridecan-13-oyl)-4-hydroxy-N-(4-(4-methylthiazol-5-yl)benzyl)pyrrolidine-2-carboxamide]",0.804 ± 0.003,–11.7 ± 0.4 kcal·mol^–1,–10.0 ± 0.1 kcal·mol^–1,–1.71 ± 0.43 kcal·mol^–1,1.12 ± 0.01,–9.46 ± 0.13 kcal·mol^–1,–4.07 ± 0.07 kcal·mol^–1,–5.39 ± 0.14 kcal·mol^–1,0.2,0.15,–0.83 ± 0.10,1.07 ± 0.01,–8.33 ± 0.05 kcal·mol^–1,–7.02 ± 0.11 kcal·mol^–1,–1.31 ± 0.12 kcal·mol^–1,–,11/11%,11/11%,–156%
